Test results: patent US8318716B2, “Carbapenem derivatives” (KBP Biosciences Co., Ltd., priority 2009, dated 2012)
Values after ≈ are worked out from the molar mass of the structure shown. Like-named read-outs stand apart in the source and are kept apart here.

Experiments:
Assay type in all cases: cell-based
[1] = system: methicillin-sensitive Staphylococcus aureus (MSSA); assay: In vitro antibacterial activity, agar dilution method, MSSA; conditions: clinically isolated strains
Text: (§1) Bacterial strains for test: All the bacterial strains are clinically isolated strains obtained from public sources. (1) Gram-positive bacteria: methicillin-sensitive Staphylococcus aureus (MSSA), methicillin-resistant Staphylococcus aureus (MRSA), methicillin-resistant Staphylococcus epidermidis (MRSE), methicillin-sensitive Staphylococcus epidermidis (MSSE), penicillin-sensitive Streptococcus pneumoniae (PSSP), and penicillin-resistant Streptococcus pneumoniae (PRSP); (2) Gram-negative bacteria: Escherichia coli (products from ESBLs), Klebsiella pneumonia, and Pseudomonas aeruginosa.
(§2) Drugs to be tested: Compounds 1 to 5, prepared as described above; Control drugs:
(§3) Meropenem (Meropenem for injection), Imipenem (Imipenem for injection), commercially available.
(§4) Experimental Method: the agar dilution method, by reference to Methodology of Pharmacological Experiment (X U Shuyun et al, published by the Peoples Medical Publishing House, 1st Edition, August, 1982; 3rd Edition, 5th printing, January 2002, p 1659-1660).

[2] = system: methicillin-resistant Staphylococcus aureus (MRSA); assay: In vitro antibacterial activity, agar dilution method, MRSA; conditions: clinically isolated strains
Text: as §1, §2, §3, §4

[3] = system: methicillin-sensitive Staphylococcus epidermidis (MSSE); assay: In vitro antibacterial activity, agar dilution method, MSSE
Text: as §1, §2, §3, §4

[4] = system: methicillin-resistant Staphylococcus epidermidis (MRSE); assay: In vitro antibacterial activity, agar dilution method, MRSE; conditions: clinically isolated strains
Text: as §1, §2, §3, §4

[5] = system: penicillin-sensitive Streptococcus pneumoniae (PSSP); assay: In vitro antibacterial activity, agar dilution method, PSSP; conditions: clinically isolated strains
Text: as §1, §2, §3, §4

[6] = system: penicillin-resistant Streptococcus pneumoniae (PRSP); assay: In vitro antibacterial activity, agar dilution method, PRSP; conditions: clinically isolated strains
Text: as §1, §2, §3, §4

[7] = system: Klebsiella pneumonia; assay: In vitro antibacterial activity, agar dilution method, klebsiella pneumonia; conditions: Klebsiella pneumoniae, clinically isolated strains
Text: as §1, §2, §3, §4

[8] = system: proteus mirabilis; assay: In vitro antibacterial activity, agar dilution method, proteus mirabilis; conditions: clinically isolated strains
[9] = system: Escherichia coli (products from ESBLs); assay: In vitro antibacterial activity, agar dilution method, ESBLs; conditions: clinically isolated strains
Text: as §1, §2, §3, §4

[10] = system: Pseudomonas aeruginosa; assay: In vitro antibacterial activity, agar dilution method, pseudomonas aeruginosa; conditions: clinically isolated strains
Text: as §1, §2, §3, §4

[11] = MSSE, clinically isolated strains, agar dilution, read-out: MIC90

SMILES	MIC90 [1]	MIC90 [2]	MIC90 [3, 11]	MIC90 [4]	MIC90 [5]	MIC90 [6]	MIC90 [7]	MIC90 [8]	MIC90 [9]	MIC90 [10]	MIC90 [3]
C[C@@H](O)[C@H]1C(=O)N2C(C(=O)O)=C(S[C@@H]3CN[C@H](C(=O)NCc4ccc(OC(F)(F)F)cc4)C3)[C@H](C)[C@H]12 [Compound 4, (4R,5S,6S)-6-((R)-1-hydroxyethyl)-4-methyl-7-oxo-3-((3S,5S)-5-(4-(trifluoromethoxy)benzylcarbamoyl)pyrrolidin-3-ylthio)-1-azabicyclo[3.2.0]hept-2-ene-2-carboxylic acid]	0.031 µg/mL (≈ 0.0585 µM)	16 µg/mL (≈ 30.2 µM)	0.031 µg/mL (≈ 0.0585 µM)	16 µg/mL (≈ 30.2 µM)	0.016 µg/mL (≈ 0.0302 µM)	0.125 µg/mL (≈ 0.236 µM)	0.031 µg/mL (≈ 0.0585 µM)	0.125 µg/mL (≈ 0.236 µM)	0.016 µg/mL (≈ 0.0302 µM)	4 µg/mL (≈ 7.55 µM)	
C[C@@H](O)[C@H]1C(=O)N2C(C(=O)O)=C(S[C@@H]3CN[C@H](C(=O)NCc4ccc(OC(F)F)cc4)C3)[C@H](C)[C@H]12 [Compound 5]	0.063 µg/mL (≈ 0.123 µM)	16 µg/mL (≈ 31.3 µM)	0.063 µg/mL (≈ 0.123 µM)	16 µg/mL (≈ 31.3 µM)	0.016 µg/mL (≈ 0.0313 µM)	0.25 µg/mL (≈ 0.489 µM)	0.063 µg/mL (≈ 0.123 µM)	0.125 µg/mL (≈ 0.244 µM)	0.016 µg/mL (≈ 0.0313 µM)	2 µg/mL (≈ 3.91 µM)	
C[C@@H](O)[C@H]1C(=O)N2C(C(=O)O)=C(SCCN=CN)C[C@H]12 [Imipenem, reference compound]	0.063 µg/mL (≈ 0.21 µM)	32 µg/mL (≈ 107 µM)	0.031 µg/mL (≈ 0.104 µM)	64 µg/mL (≈ 214 µM)	0.016 µg/mL (≈ 0.0534 µM)	0.5 µg/mL (≈ 1.67 µM)	0.5 µg/mL (≈ 1.67 µM)	8 µg/mL (≈ 26.7 µM)	0.25 µg/mL (≈ 0.835 µM)	8 µg/mL (≈ 26.7 µM)	
C[C@@H](O)[C@H]1C(=O)N2C(C(=O)O)=C(S[C@@H]3CN[C@H](C(=O)N(C)C)C3)[C@H](C)[C@H]12 [Meropenem, reference compound]	0.25 µg/mL (≈ 0.652 µM)	64 µg/mL (≈ 167 µM)		64 µg/mL (≈ 167 µM)	0.031 µg/mL (≈ 0.0808 µM)	1 µg/mL (≈ 2.61 µM)	0.063 µg/mL (≈ 0.164 µM)	0.25 µg/mL (≈ 0.652 µM)	0.031 µg/mL (≈ 0.0808 µM)	4 µg/mL (≈ 10.4 µM)	0.125 µg/mL (≈ 0.326 µM)

The next lines start with results.

MIC90 [1]	MIC90 [2]	MIC90 [3, 11]	MIC90 [4]	MIC90 [5]	MIC90 [6]	MIC90 [7]	MIC90 [8]	MIC90 [9]	MIC90 [10]	SMILES	MIC90 [3]
0.063 µg/mL (≈ 0.132 µM)	16 µg/mL (≈ 33.6 µM)	0.031 µg/mL (≈ 0.0652 µM)	32 µg/mL (≈ 67.3 µM)	0.016 µg/mL (≈ 0.0336 µM)	0.25 µg/mL (≈ 0.526 µM)	0.031 µg/mL (≈ 0.0652 µM)	0.125 µg/mL (≈ 0.263 µM)	0.031 µg/mL (≈ 0.0652 µM)	4 µg/mL (≈ 8.41 µM)	COc1ccc(CNC(=O)[C@@H]2C[C@H](SC3=C(C(=O)O)N4C(=O)[C@H]([C@@H](C)O)[C@H]4[C@H]3C)CN2)cc1 [Compound 1, (4R,5S,6S)-6-((R)-1-hydroxyethyl)-3-((3S,5S)-5-(4-methoxybenzylcarbamoyl)pyrrolidin-3-ylthio)-4-methyl-7-oxo-1-azabicyclo[3.2.0]hept-2-ene-2-carboxylic acid]	
	16 µg/mL (≈ 30.5 µM)	0.063 µg/mL (≈ 0.12 µM)	32 µg/mL (≈ 61 µM)	0.016 µg/mL (≈ 0.0305 µM)	0.125 µg/mL (≈ 0.238 µM)	0.063 µg/mL (≈ 0.12 µM)	0.125 µg/mL (≈ 0.238 µM)	0.063 µg/mL (≈ 0.12 µM)	4 µg/mL (≈ 7.62 µM)	C[C@@H](O)[C@H]1C(=O)N2C(C(=O)O)=C(S[C@@H]3CN[C@H](C(=O)NCc4ccc(S(N)(=O)=O)cc4)C3)[C@H](C)[C@H]12 [Compound 2]	
0.063 µg/mL (≈ 0.122 µM)	32 µg/mL (≈ 61.8 µM)	0.031 µg/mL (≈ 0.0599 µM)	32 µg/mL (≈ 61.8 µM)	0.031 µg/mL (≈ 0.0599 µM)	0.25 µg/mL (≈ 0.483 µM)	0.031 µg/mL (≈ 0.0599 µM)	0.25 µg/mL (≈ 0.483 µM)	0.031 µg/mL (≈ 0.0599 µM)	2 µg/mL (≈ 3.86 µM)	C[C@@H](O)[C@H]1C(=O)N2C(C(=O)O)=C(S[C@@H]3CN[C@H](C(=O)NCc4cccc(CCC(=O)O)c4)C3)[C@H](C)[C@H]12 [Compound 3]	
